Reference: patent US12116358B2, “Substituted indoles and methods of use thereof” (EPIZYME, INC., priority 2018, dated 2024)
Where two headings read alike, the source gives them in different places.

Tests used:
SETD2(1434-1711) = biological target: T1, SETD2(1434-1711) (Homo sapiens, UniProt Q9BYW2); test: SETD2 (1434-1711) assay; type: biochemical; settings: read-out: SETD2 (1434-1711)
T1 construct: SETD2 (1434-1711) Assay; catalogue N/A
T1 sequence (Q9BYW2 1434-1711): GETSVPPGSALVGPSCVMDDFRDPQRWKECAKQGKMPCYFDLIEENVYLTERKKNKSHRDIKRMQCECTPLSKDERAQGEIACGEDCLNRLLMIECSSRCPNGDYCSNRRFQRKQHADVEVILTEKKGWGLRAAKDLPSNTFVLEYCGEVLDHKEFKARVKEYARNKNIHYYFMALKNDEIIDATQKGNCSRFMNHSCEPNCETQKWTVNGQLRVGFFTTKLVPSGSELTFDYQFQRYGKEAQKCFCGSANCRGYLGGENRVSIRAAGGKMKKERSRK

H3K36me3 in A549 cells = test: In-Cell Western (ICW) assay of SETD2 inhibitors (A549 assay); type: cell-based, human; settings: A549 cells, read-out: SETD2 A549
Experimental: In-Cell Western (ICW) Assay of SETD2 Inhibitors (A549 Assay)
Representative Compounds of the Disclosure were tested in the A549 assay according the following protocol.
1. Reagents and Consumables:
Prepare plates with compounds. Seed A549 cells to the plates with compounds, 4,000 cells/well, 50 μl/well. Put the plates at room temperature on a non-vibrating surface for 20 minutes before placing in the incubator. Incubate the plate at 37° C. incubator with CO2 for 3 days. Remove plate from incubator and bring to room temperature. Blot media out of the plate and add 50 μL of ice cold 100% methanol. Incubate 30 minutes at room temperature. Remove methanol by aspiration. Wash 3× with PBST. Add 50 μL of Blocking Buffer+0.1% Tween 20. Incubate 1 hour. Remove Blocking Buffer, wash 3× with PBST. Add 20 μL of H3K36me3 (1:1000 dilution). […] Incubate overnight at 4° C. Wash plate 5× with PBS-T. Add 20 μL of DRAQ5 (1:1000) and IRDye 800CW Goat anti-Rabbit IgG (1:500). Incubate for 1 hour in the dark. Wash plate 5× with PBS-T. Wash plate 3× with water. Dry by blotting on paper towel, then centrifuge plate upside down on a thin layer of paper towels for 1 minute at 1000 rpm to remove excess reagent. Leave plate uncovered for ˜10 minutes out of direct light before reading. Read on Licor instrument.
4. Licor Instrument Settings:
Preset: Plate; Resolution: 84 μm; Quality: low; Focus offset: 4.0; 700 channel intensity: 2; and 800 channel intensity: 3.

Row | Compound | IC50 (SETD2(1434-1711)) | IC50 (H3K36me3 in A549 cells; Homo sapiens) | IC50 (H3K36me3 in A549 cells)
1 | Cc1cccc2cc(C(=O)NC(c3ncccc3Cl)C3CC3)[nH]c12 (stereo not drawn) [compound 419] | 800 nM | 3400 nM | 
2 | Cc1ccc(F)c2cc(C(=O)NC3CCCC(N4CCC(N(C)C(=O)CO)C4)C3)[nH]c12 (stereo not drawn) [compound 984] | 5300 nM |  | > 2000 nM
3 | Cc1ccc(F)c2cc(C(=O)NC3CCCC(N4CCNCC4)C3)[nH]c12 (stereo not drawn) [compound 956] | 100 nM |  | 700 nM
4 | Cc1ccc(F)c2cc(C(=O)Nc3cc(F)cc(N4C[C@@H]5CCN(C)[C@@H]5C4)c3)[nH]c12 [compound 105] | 8 nM |  | 200 nM
5 | Cc1ccc(F)c2cc(C(=O)NC3CCCC(N4CCN5C(=O)CN(C)C(=O)C5C4)C3)[nH]c12 (stereo not drawn) [compound 1046] | 2800 nM |  | > 2000 nM
6 | Cc1noc(CN)c1C(NC(=O)c1cc2cccc(C)c2[nH]1)C1CC1 (stereo not drawn) [compound 602] | > 50000 nM | > 25000 nM | 
7 | Cc1cccnc1C(CCC(=O)NC1CCOC1)NC(=O)c1cc2cccc(C)c2[nH]1 (stereo not drawn) [compound 571] | 15900 nM |  | > 25000 nM
8 | Cc1ccc(F)c2cc(C(=O)Nc3cc(F)cc(N4CCOC(CO)C4)c3)[nH]c12 (stereo not drawn) [compound 48] | 20 nM |  | 100 nM
9 | CC(=O)N1CCN([C@H]2CCC[C@@H](NC(=O)c3cc4c(F)ccc(C)c4[nH]3)C2)CC12CC2 [compound 1025] | 20 nM | 30 nM | 
10 | CC(=O)N1CCC(c2cccc(NC(=O)c3cc4c(F)ccc(C)c4[nH]3)c2)C1 (stereo not drawn) [compound 73] | 40 nM |  | 200 nM
11 | Cc1ccc(F)c2cc(C(=O)Nc3cccc(N4CCN(C)C(=O)C4)c3)[nH]c12 [compound 58] | 40 nM |  | 100 nM
12 | Cc1ccc(F)c2cc(C(=O)NC3CCCC(N4CCCN(C)C(=O)C4)C3)[nH]c12 (stereo not drawn) [compound 387] | > 10000 nM |  | > 2000 nM
13 | Cc1ccc(F)c2cc(C(=O)NC3CCCC(c4cncnc4)C3)[nH]c12 (stereo not drawn) [compound 380] | > 10000 nM |  | > 2000 nM
14 | Cc1ccc(F)c2cc(C(=O)Nc3cccc(N4CCN5C(=O)N(C)CC5C4)c3)[nH]c12 (stereo not drawn) [compound 54] | 30 nM | 100 nM | 
15 | Cc1cccnc1C(C)NC(=O)c1cc2cccc(C)c2[nH]1 (stereo not drawn) [compound 480] | 7000 nM | 9500 nM | 
16 | Cc1ccc(F)c2cc(C(=O)NC3CCCC(c4nnc(CN(C)C)o4)C3)[nH]c12 (stereo not drawn) [compound 955] | 200 nM |  | 800 nM
17 | Cc1ccc(F)c2cc(C(=O)Nc3cc(F)cc([C@@H]4CCN5C(=O)CC[C@H]5C4)c3)[nH]c12 [compound 96] | 40 nM |  | 200 nM
18 | Cc1ccc(F)c2cc(C(=O)N[C@@H]3CCC[C@H](N4CCCC5(CCNC5=O)C4)C3)[nH]c12 (stereo partly drawn) [compound 882] | 100 nM | 700 nM | 
19 | Cc1ccc(F)c2cc(C(=O)NC3CCCC(N4CCN(C(=O)C(C)C)C(C(F)(F)F)C4)C3)[nH]c12 (stereo not drawn) [compound 1175] | 8400 nM |  | > 2000 nM
20 | CC(=O)N1C2CCC1CN(C1CCCC(NC(=O)c3cc4c(F)ccc(C)c4[nH]3)C1)C2 (stereo not drawn) [compound 926] | 20 nM |  | 100 nM
21 | Cc1ccc(F)c2cc(C(=O)NC3CCCC(N4CCN(C(=O)CO)C(C(F)(F)F)C4)C3)[nH]c12 (stereo not drawn) [compound 1173] | 40 nM |  | 30 nM
22 | Cc1ccc(F)c2cc(C(=O)N[C@H]3CCC[C@@H](C4=NNC(=O)CN4)C3)[nH]c12 [compound 1188] | 200 nM | 1800 nM | 
23 | Cc1ccc(F)c2cc(C(=O)Nc3cccc(N4C[C@@H](O)[C@H](N(C)C)C4)c3)[nH]c12 [compound 154] | 30 nM | 300 nM | 
24 | Cc1cccnc1C(CCC(=O)Nc1cccnc1)NC(=O)c1cc2cccc(C)c2[nH]1 (stereo not drawn) [compound 523] | 8800 nM |  | 20800 nM
25 | COCCN(C(C)=O)C1CCN(C2CCCC(NC(=O)c3cc4c(F)ccc(C)c4[nH]3)C2)C1 (stereo not drawn) [compound 844] | 8500 nM |  | > 2000 nM
26 | Cc1cccc2cc(C(=O)Nc3cccc(N4CCN(CCN)CC4)c3)[nH]c12 [compound 467] | 400 nM | 7300 nM | 
27 | Cc1ccc(F)c2cc(C(=O)Nc3cccc(N4CCN5C(=O)NCC5C4)c3)[nH]c12 (stereo not drawn) [compound 181] | 30 nM |  | 400 nM
